Test results: the supplement of paper PMC11451515

Tested on: NOMO1
Test: cell viability relative to DMSO control; higher = less cytotoxic
Details: 48 h
In short: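 Leukemia cells (NOMO1 or SEM, 500 cells/well; P12-Ichikawa, 1000 cells/well) were seeded in 5 μl in 1536-well plates after at least four passages of adaptation to each medium. They received library compounds in DMSO by pin dosing, 11 threefold points from 47 μM to 0.79 nM. Luminescence with CellTiter-Glo One was read after 48 h at 37°C. Viability is stated per plate relative to DMSO wells, with cell-free wells as background.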

[1] = HPLM + 10% dialyzed FBS, 0.000781 µM
[2] = HPLM + 10% dialyzed FBS, 0.00234 µM
[3] = HPLM + 10% dialyzed FBS, 0.00702 µM
[4] = HPLM + 10% dialyzed FBS, 0.0211 µM
[5] = HPLM + 10% dialyzed FBS, 0.0632 µM
[6] = HPLM + 10% dialyzed FBS, 0.19 µM
[7] = HPLM + 10% dialyzed FBS, 0.569 µM
[8] = HPLM + 10% dialyzed FBS, 1.71 µM
[9] = HPLM + 10% dialyzed FBS, 5.12 µM
[10] = HPLM + 10% dialyzed FBS, 15.4 µM
[11] = HPLM + 10% dialyzed FBS, 46.1 µM
[12] = RPMI 5 mM glucose + 10% FBS, 0.000781 µM
[13] = RPMI 5 mM glucose + 10% FBS, 0.00234 µM
[14] = RPMI 5 mM glucose + 10% FBS, 0.00702 µM
[15] = RPMI 5 mM glucose + 10% FBS, 0.0211 µM
[16] = RPMI 5 mM glucose + 10% FBS, 0.0632 µM
[17] = RPMI 5 mM glucose + 10% FBS, 0.19 µM
[18] = RPMI 5 mM glucose + 10% FBS, 0.569 µM
[19] = RPMI 5 mM glucose + 10% FBS, 1.71 µM
[20] = RPMI 5 mM glucose + 10% FBS, 5.12 µM
[21] = RPMI 5 mM glucose + 10% FBS, 15.4 µM
[22] = RPMI 5 mM glucose + 10% FBS, 46.1 µM
[23] = RPMI 5 mM glucose + 10% dialyzed FBS, 0.000781 µM
[24] = RPMI 5 mM glucose + 10% dialyzed FBS, 0.00234 µM
[25] = RPMI 5 mM glucose + 10% dialyzed FBS, 0.00702 µM
[26] = RPMI 5 mM glucose + 10% dialyzed FBS, 0.0211 µM
[27] = RPMI 5 mM glucose + 10% dialyzed FBS, 0.0632 µM
[28] = RPMI 5 mM glucose + 10% dialyzed FBS, 0.19 µM
[29] = RPMI 5 mM glucose + 10% dialyzed FBS, 0.569 µM
[30] = RPMI 5 mM glucose + 10% dialyzed FBS, 1.71 µM
[31] = RPMI 5 mM glucose + 10% dialyzed FBS, 5.12 µM
[32] = RPMI 5 mM glucose + 10% dialyzed FBS, 15.4 µM
[33] = RPMI 5 mM glucose + 10% dialyzed FBS, 46.1 µM

SMILES	cell viability [1] [%]	cell viability [2] [%]	cell viability [3] [%]	cell viability [4] [%]	cell viability [5] [%]	cell viability [6] [%]	cell viability [7] [%]	cell viability [8] [%]	cell viability [9] [%]	cell viability [10] [%]	cell viability [11] [%]	cell viability [12] [%]	cell viability [13] [%]	cell viability [14] [%]	cell viability [15] [%]	cell viability [16] [%]	cell viability [17] [%]	cell viability [18] [%]	cell viability [19] [%]	cell viability [20] [%]	cell viability [21] [%]	cell viability [22] [%]	cell viability [23] [%]	cell viability [24] [%]	cell viability [25] [%]	cell viability [26] [%]	cell viability [27] [%]	cell viability [28] [%]	cell viability [29] [%]	cell viability [30] [%]	cell viability [31] [%]	cell viability [32] [%]	cell viability [33] [%]
C#C[C@]1(O)CC[C@H]2[C@@H]3CCc4cc(O)ccc4[C@H]3CC[C@@]21C	101	116	104	104	102	105	109	96	97.9	68	51.3	97.7	93.9	99.9	95.9	105	91.9	87	91.5	89	85	80.4	97.2	103	87.4	101	99.4	106	92.4	78.3	89.1	71.3	48.4
C[N]1C=C(C2=C1C=CC=C2)\C3=C(\C(=O)NC3=O)C4=C5CC(CN)CC[N]5C6=C4C=CC=C6 (configuration not stated)	94.9	118	115	101	109	120	115	110	113	90	37.4	88.5	104	94.1	97.8	102	100	93.5	95.8	96.8	81.3	44.1	92.8	100	106	114	105	111	105	100	104	88	63.4
CC(N)C12CC3CC(CC(C3)C1)C2 (configuration not stated)	99.4	120	116	113	117	104	126	109	104	85.1	80.2	104	118	122	111	108	116	126	112	112	53.4	49.2											
O=C(Nc1ccc(F)c(C(F)(F)F)c1)Nc1nnc(-c2ccncc2)s1	112	120	127	130	134	136	118	112	118	108	111	123	113	124	106	114	105	121	102	108	107	101	119	124	128	124	125	131	113	128	116	114	100
CC(C)NC[C@@H](C(=O)N1CCN(c2ncnc3c2[C@H](C)C[C@H]3O)CC1)c1ccc(Cl)cc1	115	115	119	117	109	103	109	110	79	51.4	18.6	109	121	109	100	111	109	107	105	102	73.8	47.8	124	89.2	115	100	103	100	108	87.8	81.6	57.6	43.1
C/C=C(/C)C(=O)O[C@H]1C(C)=C[C@]23C(=O)[C@@H](C=C(CO)[C@@H](O)[C@]12O)[C@H]1[C@@H](C[C@H]3C)C1(C)C	119	127	114	112	93.5	69	66.4	64.7	60.6	61.5	39.3	121	128	121	108	96	79.1	67.8	65.9	66.3	69.4	51.7											
CSCC[C@@H](NC(=O)[C@@H](Cc1ccccc1)NC(=O)CNC(=O)CNC(=O)[C@@H](N)Cc1ccc(O)cc1)C(=O)O	77.4	90.8	110	28.1	110	121	121	104	92	100	109	91.8	89.3	105	22.1	110	103	102	100	95.4	101	97.9	87.1	97.4	94.6	34.8	88.3	103	97.6	111	99.9	113	109
CN1CCN(c2ccc([N+](=O)[O-])c3no[n+]([O-])c23)CC1	86.5	101	110	114	107	111	100	105	116	86.6	56.6	88.4	99.6	87.6	93.3	92.9	103	89.5	85.1	94.1	83.9	68.1	81.5	78.1	91.3	85.6	96.1	95.6	92.5	95.9	86.6	87.4	72.4
